The nature of data set [1]: Equilibrium solubility of drug substance in media with solubilizer (excess drug, rotated 48 hours at room temperature, filtered, HPLC). The format is physicochemical. To be noted: for solubility at 48 h: thermodynamic from solid, read-out: Oxcarbazepine Solubility; for solubility enhancement ratio: vs vehicle alone. Here is the method: An excess of drug substance was added to 20 ml glass liquid scintillation vials (Kimble Glass Inc., Vineland, N.J.) containing 10 ml of the media with a specific amount of solubilizer. […] The samples were filtered through a 0.45 μm filter (Acrodisc CR PTFE membrane filter, Gelman Sciences, Ann Arbor, Mich.). After discarding the first mL of the filtrates to eliminate any membrane adsorptive effect, the filtrates were collected for high-performance liquid chromatography (HPLC) analysis for drug concentration.

The conditions of data set [2]: set by the WHO; cited from earlier work.
For data set [3] the following is noted: water; cited from earlier work.
The nature of data set [4]: Stability of crystalline methylated β-cyclodextrin against heat and humidity. The class given is physicochemical.
Data set [5] can be described thus: Water solubility of the cyclodextrin itself. The note with it: room temperature. The class given is physicochemical.

Converted amounts (≈) assume the structure as drawn. Like-named read-outs stand apart in the source and are kept apart here.

On to `NC(=O)N1c2ccccc2CC(=O)c2ccccc21` [Oxcarbazepine], for which the solubility (in general, the dissolved amount per volume that the medium holds) at 48 h in data set [1] (1% (w/v) Cavasol W7M, aqueous, aqueous with cosolvent or surfactant or cyclodextrin, 1% (w/v) Cavasol W7M, aqueous) amounted to 150 µg/mL (≈ 595 µM); in data set [1] (1% (w/v) Cryst. Methylated β-CD, aqueous, aqueous with cosolvent or surfactant or cyclodextrin, 1% (w/v) Cryst. Methylated β-CD, aqueous), 230 µg/mL (≈ 912 µM); in data set [1] (1% (w/v) HP-β-cyclodextrin, aqueous, aqueous with cosolvent or surfactant or cyclodextrin, 1% (w/v) HP-β-cyclodextrin, aqueous) it was 130 µg/mL (≈ 515 µM); in data set [1] (1% (w/v) Tween 80, aqueous, aqueous with cosolvent or surfactant or cyclodextrin, 1% (w/v) Tween 80, aqueous), 120 µg/mL (≈ 476 µM); in data set [1] (2% (w/v) Cavasol W7M, aqueous, aqueous with cosolvent or surfactant or cyclodextrin, 2% (w/v) Cavasol W7M, aqueous), 240 µg/mL (≈ 951 µM); in data set [1] (2% (w/v) Cryst. Methylated β-CD, aqueous, aqueous with cosolvent or surfactant or cyclodextrin, 2% (w/v) Cryst. Methylated β-CD, aqueous) it was 310 µg/mL (≈ 1230 µM). For the same compound, the solubility at 48 h turned out to be 190 µg/mL (≈ 753 µM) in data set [1] (2% (w/v) HP-β-cyclodextrin, aqueous, aqueous with cosolvent or surfactant or cyclodextrin, 2% (w/v) HP-β-cyclodextrin, aqueous); 170 µg/mL (≈ 674 µM) in data set [1] (2% (w/v) Tween 80, aqueous, aqueous with cosolvent or surfactant or cyclodextrin, 2% (w/v) Tween 80, aqueous); 290 µg/mL (≈ 1150 µM) in data set [1] (5% (w/v) Tween 80, aqueous, aqueous with cosolvent or surfactant or cyclodextrin, 5% (w/v) Tween 80, aqueous); 490 µg/mL (≈ 1940 µM) in data set [1] (aqueous media with solubilizer, aqueous with cosolvent or surfactant or cyclodextrin, 5% (w/v) Cavasol W7M, aqueous); 820 µg/mL (≈ 3250 µM) in data set [1] (aqueous media with solubilizer, aqueous with cosolvent or surfactant or cyclodextrin, 5% (w/v) Cryst. Methylated β-CD, aqueous); 340 µg/mL (≈ 1350 µM) in data set [1] (aqueous media with solubilizer, aqueous with cosolvent or surfactant or cyclodextrin, 5% (w/v) HP-β-cyclodextrin, aqueous). Besides, the solubility at 48 h in data set [1] (aqueous media with solubilizer, aqueous with cosolvent or surfactant or cyclodextrin, 10% (w/v) Cavasol W7M, aqueous) worked out at 670 µg/mL (≈ 2660 µM); in data set [1] (aqueous media with solubilizer, aqueous with cosolvent or surfactant or cyclodextrin, 10% (w/v) Cryst. Methylated β-CD, aqueous), 1490 µg/mL (≈ 5910 µM); in data set [1] (aqueous media with solubilizer, aqueous with cosolvent or surfactant or cyclodextrin, 10% (w/v) HP-β-cyclodextrin, aqueous), 670 µg/mL (≈ 2660 µM); in data set [1] (aqueous media with solubilizer, aqueous with cosolvent or surfactant or cyclodextrin, 10% (w/v) Tween 80, aqueous), 500 µg/mL (≈ 1980 µM); in data set [1] (water, water, 0% (w/v) solubilizer) it was 70 µg/mL (≈ 277 µM). Further, the solubility enhancement ratio in data set [1] (1% (w/v) Cavasol W7M, aqueous) worked out at 2.1; in data set [1] (1% (w/v) Cryst. Methylated β-CD, aqueous), 3.3; in data set [1] (1% (w/v) HP-β-cyclodextrin, aqueous), 1.9; in data set [1] (1% (w/v) Tween 80, aqueous), 1.7; in data set [1] (2% (w/v) Cavasol W7M, aqueous), 3.4; in data set [1] (2% (w/v) Cryst. Methylated β-CD, aqueous) it was 4.4. Moreover, the solubility enhancement ratio is recorded as 2.7 in data set [1] (2% (w/v) HP-β-cyclodextrin, aqueous); 2.4 in data set [1] (2% (w/v) Tween 80, aqueous); 7.0 in data set [1] (5% (w/v) Cavasol W7M, aqueous); 11.7 in data set [1] (5% (w/v) Cryst. Methylated β-CD, aqueous); 4.9 in data set [1] (5% (w/v) HP-β-cyclodextrin, aqueous); 4.1 in data set [1] (5% (w/v) Tween 80, aqueous). For the same compound, the solubility enhancement ratio in data set [1] (10% (w/v) Cavasol W7M, aqueous) was 9.6; in data set [1] (10% (w/v) Cryst. Methylated β-CD, aqueous), 21.3; in data set [1] (10% (w/v) HP-β-cyclodextrin, aqueous) it was 9.6; in data set [1] (10% (w/v) Tween 80, aqueous) it was 7.1. For the same compound, the “Oxcarbazepine Solubility” value in data set [1] (water, 0% (w/v) solubilizer) was found to be 70 µg/mL.
With `CC(O)CO` (centres unmarked) [propylene glycol], in data set [2], the acceptable daily intake result is on record as “up to 25 mg/kg body weight”.
Take `OC[C@H]1O[C@@H]2O[C@H]3[C@H](O)[C@@H](O)[C@@H](O[C@H]4[C@H](O)[C@@H](O)[C@@H](O[C@H]5[C@H](O)[C@@H](O)[C@@H](O[C@H]6[C@H](O)[C@@H](O)[C@@H](O[C@H]7[C@H](O)[C@@H](O)[C@@H](O[C@H]8[C@H](O)[C@@H](O)[C@@H](O[C@H]1[C@H](O)[C@H]2O)O[C@@H]8CO)O[C@@H]7CO)O[C@@H]6CO)O[C@@H]5CO)O[C@@H]4CO)O[C@@H]3CO` [β-cyclodextrin]: the aqueous solubility in data set [3] is reported as 1.8 % w/v.
With crystalline methylated β-cyclodextrin, in data set [4], the “stability against heat and humidity” value is “stable against heat and humidity”. In addition, the water solubility entry in data set [5] was “around 15%”.

These data come from patent US7259153B2, “Drug formulation and delivery using crystalline methylated cyclodextrins” (Supernus Pharmaceuticals, priority 2003, dated 2007).
